Assay results: patent US8664257B2, “Oxygen-substituted 3-heteroaroylamino-propionic acid derivatives and their use as pharmaceuticals” (Sanofi, priority 2010, dated 2014)
Like-named read-outs stand apart in the source and are kept apart here.

Biological target: T1, Recombinant human cathepsin A (Homo sapiens, UniProt P10619)
T1 construct: Recombinant human cathepsin A (residues 29-480, with a C-terminal 10-His tag); 10-His (C); purchased R&D Systems 1049-SE
T1 sequence (P10619 29-312 limits assumed): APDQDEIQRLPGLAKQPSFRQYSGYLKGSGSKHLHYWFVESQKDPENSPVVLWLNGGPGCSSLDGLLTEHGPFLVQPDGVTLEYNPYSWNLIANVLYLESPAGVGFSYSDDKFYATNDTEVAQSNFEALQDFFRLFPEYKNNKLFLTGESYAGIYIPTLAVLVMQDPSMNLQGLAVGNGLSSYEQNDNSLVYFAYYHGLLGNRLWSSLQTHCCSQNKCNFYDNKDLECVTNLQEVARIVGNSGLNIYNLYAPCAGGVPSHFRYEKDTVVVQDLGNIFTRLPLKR
T1 sequence (P10619 327-480 limits assumed): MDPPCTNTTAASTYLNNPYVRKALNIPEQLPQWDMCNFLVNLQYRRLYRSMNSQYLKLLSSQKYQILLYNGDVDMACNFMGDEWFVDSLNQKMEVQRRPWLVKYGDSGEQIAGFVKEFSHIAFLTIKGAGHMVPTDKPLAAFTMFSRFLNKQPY
Assay: Cathepsin A inhibitory activity
Format: biochemical
Summary of the method: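 Read-out was microfluidic separation of cleaved vs. uncleaved Bodipy FL-bradykinin (2 μM), giving turnover, % inhibition and IC50. Compound and 833 ng/ml enzyme met for 15 min RT in pH 5.5 MES/DTT before substrate (15 min RT). The 29-480 His-tagged human enzyme was first activated by cathepsin L, then E-64 (10 μM).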

[1] = read-out: Activity (2): Cathepsin A inhibitory activity (IC50 class)
[2] = recombinant human cathepsin A 833 ng/ml, Bodipy FL-labeled bradykinin 2 μM, pH 5.5, read-out: CATH-A IC50

Structure (SMILES)	IC50 [1]	IC50 [2]
COc1ccc(C(CC(=O)O)NC(=O)c2cc(O)n(-c3ccccc3)n2)c(C(F)(F)F)c1 (centres unmarked) [Example 546, 3-[(5-Hydroxy-1-phenyl-1H-pyrazole-3-carbonyl)-amino]-3-(4-methoxy-2-trifluoromethyl-phenyl)-propionic acid]	0.1 to 1 µM	0.533 µM
COc1ccc(F)c(C(CC(=O)O)NC(=O)c2cc(O)n(-c3ccccc3)n2)c1 (centres unmarked) [Example 547, 3-(2-Fluoro-5-methoxy-phenyl)-3-[(5-hydroxy-1-phenyl-1H-pyrazole-3-carbonyl)-amino]-propionic acid]	1 to 30 µM	1.39 µM
COc1ccc(C(F)(F)F)cc1C(CC(=O)O)NC(=O)c1cc(O)n(-c2ccccc2)n1 (centres unmarked) [Example 548, 3-[(5-Hydroxy-1-phenyl-1H-pyrazole-3-carbonyl)-amino]-3-(2-methoxy-5-trifluoromethyl-phenyl)-propionic acid]	1 to 30 µM	7.76 µM
COc1ccc(-c2ccccc2)cc1C(CC(=O)O)NC(=O)c1cc(O)n(-c2ccccc2)n1 (centres unmarked) [Example 549, 3-[(5-Hydroxy-1-phenyl-1H-pyrazole-3-carbonyl)-amino]-3-(4-methoxy-biphenyl-3-yl)-propionic acid]	1 to 30 µM	13.8 µM
O=C(O)CC(NC(=O)c1cc(O)n(-c2ccccc2F)n1)c1ccc(-n2cncn2)cc1 (centres unmarked) [Example 550, 3-{[1-(2-Fluoro-phenyl)-5-hydroxy-1H-pyrazole-3-carbonyl]-amino}-3-(4-[1,2,4]triazol-1-yl-phenyl)-propionic acid]	0.1 to 1 µM	0.635 µM
COc1cc(-c2ccccc2)ccc1C(CC(=O)O)NC(=O)c1cc(O)n(-c2ccccc2F)n1 (centres unmarked) [Example 551, 3-{[1-(2-Fluoro-phenyl)-5-hydroxy-1H-pyrazole-3-carbonyl]-amino}-3-(3-methoxy-biphenyl-4-yl)-propionic acid]	0.1 to 1 µM	0.352 µM
COc1ccc(C(CC(=O)O)NC(=O)c2cc(O)n(-c3ccccc3F)n2)c(C(F)(F)F)c1 (centres unmarked) [Example 552, 3-{[1-(2-Fluoro-phenyl)-5-hydroxy-1H-pyrazole-3-carbonyl]-amino}-3-(4-methoxy-2-trifluoromethyl-phenyl)-propionic acid]	0.1 to 1 µM	0.323 µM
COc1ccc(F)c(C(CC(=O)O)NC(=O)c2cc(O)n(-c3ccccc3F)n2)c1 (centres unmarked) [Example 553, 3-(2-Fluoro-5-methoxy-phenyl)-3-{[1-(2-fluoro-phenyl)-5-hydroxy-1H-pyrazole-3-carbonyl]-amino}-propionic acid]	0.1 to 1 µM	0.732 µM
COc1ccc(C(F)(F)F)cc1C(CC(=O)O)NC(=O)c1cc(O)n(-c2ccccc2F)n1 (centres unmarked) [Example 554, 3-{[1-(2-Fluoro-phenyl)-5-hydroxy-1H-pyrazole-3-carbonyl]-amino}-3-(2-methoxy-5-trifluoromethyl-phenyl)-propionic acid]	1 to 30 µM	1.84 µM
Cc1ccc(C(CC(=O)O)NC(=O)c2cc(O)n(-c3ccccc3F)n2)c(F)c1 (centres unmarked) [Example 555, 3-(2-Fluoro-4-methyl-phenyl)-3-{[1-(2-fluoro-phenyl)-5-hydroxy-1H-pyrazole-3-carbonyl]-amino}-propionic acid]	0.1 to 1 µM	0.239 µM
COc1ccc(-c2ccccc2)cc1C(CC(=O)O)NC(=O)c1cc(O)n(-c2ccccc2F)n1 (centres unmarked) [Example 556, 3-{[1-(2-Fluoro-phenyl)-5-hydroxy-1H-pyrazole-3-carbonyl]-amino}-3-(4-methoxy-biphenyl-3-yl)-propionic acid]	1 to 30 µM	8.65 µM
O=C(O)CC(NC(=O)c1cc(O)n(-c2ccccc2Cl)n1)c1ccc(-n2cncn2)cc1 (centres unmarked) [Example 557, 3-{[1-(2-Chloro-phenyl)-5-hydroxy-1H-pyrazole-3-carbonyl]-amino}-3-(4-[1,2,4]triazol-1-yl-phenyl)-propionic acid]	0.1 to 1 µM	0.839 µM
COc1cc(-c2ccccc2)ccc1C(CC(=O)O)NC(=O)c1cc(O)n(-c2ccccc2Cl)n1 (centres unmarked) [Example 558, 3-{[1-(2-Chloro-phenyl)-5-hydroxy-1H-pyrazole-3-carbonyl]-amino}-3-(3-methoxy-biphenyl-4-yl)-propionic acid]	0.1 to 1 µM	0.699 µM
COc1ccc(F)c(C(CC(=O)O)NC(=O)c2cc(O)n(-c3ccccc3Cl)n2)c1 (centres unmarked) [Example 559, 3-{[1-(2-Chloro-phenyl)-5-hydroxy-1H-pyrazole-3-carbonyl]-amino}-3-(2-fluoro-5-methoxy-phenyl)-propionic acid]	0.1 to 1 µM	0.731 µM
COc1ccc(C(F)(F)F)cc1C(CC(=O)O)NC(=O)c1cc(O)n(-c2ccccc2Cl)n1 (centres unmarked) [Example 560, 3-{[1-(2-Chloro-phenyl)-5-hydroxy-1H-pyrazole-3-carbonyl]-amino}-3-(2-methoxy-5-trifluoromethyl-phenyl)-propionic acid]	1 to 30 µM	7.62 µM
Cc1ccc(C(CC(=O)O)NC(=O)c2cc(O)n(-c3ccccc3Cl)n2)c(F)c1 (centres unmarked) [Example 561, 3-{[1-(2-Chloro-phenyl)-5-hydroxy-1H-pyrazole-3-carbonyl]-amino}-3-(2-fluoro-4-methyl-phenyl)-propionic acid]	0.1 to 1 µM	0.266 µM
COc1ccc(-c2ccccc2)cc1C(CC(=O)O)NC(=O)c1cc(O)n(-c2ccccc2Cl)n1 (centres unmarked) [Example 562, 3-{[1-(2-Chloro-phenyl)-5-hydroxy-1H-pyrazole-3-carbonyl]-amino}-3-(4-methoxy-biphenyl-3-yl)-propionic acid]	1 to 30 µM	4.49 µM
O=C(O)CC(NC(=O)c1cc(O)n(-c2ccccc2)n1)c1ccc(-n2cncn2)cc1 (centres unmarked) [Example 563, 3-[(5-Hydroxy-1-phenyl-1H-pyrazole-3-carbonyl)-amino]-3-(4-[1,2,4]triazol-1-yl-phenyl)-propionic acid]	1 to 30 µM	1.74 µM

Structure (SMILES)	IC50 [1]	IC50 [2]
Cc1ccc(C(CC(=O)O)NC(=O)c2cc(O)n(-c3ccccc3)n2)c(F)c1 (centres unmarked) [Example 564, 3-(2-Fluoro-4-methyl-phenyl)-3-[(5-hydroxy-1-phenyl-1H-pyrazole-3-carbonyl)-amino]-propionic acid]	0.1 to 1 µM	0.459 µM
O=C(O)CC(NC(=O)c1cc(O)n(-c2ccccc2)n1)c1ccc(N2CCCC2)cc1 (centres unmarked) [Example 565, 3-[(5-Hydroxy-1-phenyl-1H-pyrazole-3-carbonyl)-amino]-3-(4-pyrrolidin-1-yl-phenyl)-propionic acid]	1 to 30 µM	5.02 µM
O=C(O)CC(NC(=O)c1cc(O)n(-c2ccccc2F)n1)c1ccc(N2CCCC2)cc1 (centres unmarked) [Example 566, 3-{[1-(2-Fluoro-phenyl)-5-hydroxy-1H-pyrazole-3-carbonyl]-amino}-3-(4-pyrrolidin-1-yl-phenyl)-propionic acid]	1 to 30 µM	2.99 µM
COc1ccc(C(CC(=O)O)NC(=O)c2cc(O)n(-c3ccccc3Cl)n2)c(C(F)(F)F)c1 (centres unmarked) [Example 567, 3-{[1-(2-Chloro-phenyl)-5-hydroxy-1H-pyrazole-3-carbonyl]-amino}-3-(4-methoxy-2-trifluoromethyl-phenyl)-propionic acid]	1 to 30 µM	1.06 µM
O=C(O)CC(NC(=O)c1cc(O)n(-c2ccccc2Cl)n1)c1ccc(N2CCCC2)cc1 (centres unmarked) [Example 568, 3-{[1-(2-Chloro-phenyl)-5-hydroxy-1H-pyrazole-3-carbonyl]-amino}-3-(4-pyrrolidin-1-yl-phenyl)-propionic acid]	1 to 30 µM	2.35 µM
O=C(O)CC(NC(=O)c1cc(O)n(-c2ccccc2C(F)(F)F)n1)c1ccc(-c2ccc(F)cc2)cc1 (centres unmarked) [Example 569]	0.1 to 1 µM	–
Cc1ccccc1[C@H](CC(=O)O)NC(=O)c1cc(O)n(C2CCCC2)n1 [Example 572]	0.1 to 1 µM	–
Cc1ccccc1[C@H](CC(=O)O)NC(=O)c1cc(O)n(C2CCCCC2)n1 [Example 573]	< 0.1 µM	–
O=C(O)CC(NC(=O)c1cc(O)n(C2CCCC2)n1)c1ccc(-c2ccc(F)cc2)cc1 (centres unmarked) [Example 574]	1 to 30 µM	–
O=C(O)CC(NC(=O)c1cc(O)n(C2CCCCC2)n1)c1ccc(-c2ccc(F)cc2)cc1 (centres unmarked) [Example 575]	1 to 30 µM	–
O=C(O)CC(NC(=O)c1cc(O)n(-c2ccccc2F)n1)c1ccc(-c2ccc(C(F)(F)F)cc2)cc1 (centres unmarked) [Example 576]	0.1 to 1 µM	–
O=C(O)CC(NC(=O)c1cc(O)n(-c2ccccc2)n1)c1ccc(-n2cccn2)cc1 (centres unmarked) [Example 578]	1 to 30 µM	–
O=C(O)CC(NC(=O)c1cc(O)n(-c2ccccc2)n1)c1ccc(-c2ccc(C(F)(F)F)cc2)cc1 (centres unmarked) [Example 579]	1 to 30 µM	–
O=C(O)CC(NC(=O)c1cc(O)n(-c2ccccc2Cl)n1)c1ccc(-n2cccn2)cc1 (centres unmarked) [Example 580]	0.1 to 1 µM	–
O=C(O)CC(NC(=O)c1cc(O)n(-c2ccccc2Cl)n1)c1ccc(-c2ccc(C(F)(F)F)cc2)cc1 (centres unmarked) [Example 581]	1 to 30 µM	–
O=C(O)CC(NC(=O)c1cc(O)n(-c2ccccc2F)n1)c1ccc(-n2cccn2)cc1 (centres unmarked) [Example 582]	0.1 to 1 µM	–
O=C(O)CC(NC(=O)c1cc(O)n(-c2ccccc2)n1)c1ccc(-c2ccccc2F)cc1 (centres unmarked) [Example 583]	1 to 30 µM	–
O=C(O)CC(NC(=O)c1cc(O)n(-c2ccccc2F)n1)c1ccc(-c2ccccc2F)cc1 (centres unmarked) [Example 584]	0.1 to 1 µM	–
